These are literature values, as cited in patent publication US20250144159A1, “COMPOSITION COMPRISING A MIXTURE OF DHA AND/OR EPA AND A PHOSPHOLIPID OF PLANT ORIGIN” (POLARIS, priority 2022, published 2025).

For the data set the following is noted: oral intake; compared with DHA in triglyceride (TG) form.

For the compound `CC/C=C\C/C=C\C/C=C\C/C=C\C/C=C\C/C=C\CCC(=O)OC(CO)COP(=O)([O-])OCC[N+](C)(C)C` (centres unmarked) [lysoPC-DHA], the “cerebral capture of DHA” value is reported as “improves”.
Take `CCC=CCC=CCC=CCC=CCC=CCC=CCCC(=O)OC(COC(C)=O)COP(=O)([O-])OCC[N+](C)(C)C` (centres unmarked) [AceDoPC]: the “cerebral capture of DHA” value is recorded as “improves”.
